Target: γ-secretase (Homo sapiens, UniProt P49768)
Test: Cellular γ-secretase assay (inhibition of Aβ42 secretion, AlphaLisa)
Assay type: cell-based
Conditions: human neuroglioma H4 cells overexpressing human APP695 Swedish double mutation, 24 hr compound incubation
Method: Human neuroglioma H4 cells overexpressing human APP695 with the Swedish double mutation (K595N/M596L) were plated at 30,000 cells/well/100 μl in 96-well plates in IMDM media containing 10% FCS, 0.2 mg/l Hygromycin B and incubated at 37° C., 5% CO2. 3-4 hr post plating, compounds are a diluted in media and 50 μl is added as 1.5-fold concentrate to achieve the final concentration. Compound incubation is performed for 24 hr. Final doses typically range from 4 μM down to 0.0013 μM in half-log steps resulting in a eight point dose response curve. Appropriate controls using vehicle only and reference compound were applied to this assay. The final concentration of Me2SO was 0.4%. After incubation at 37° C., 5% CO2, the supernatant was subjected to quantification of secreted Aβ42 by the means of an AlphaLisa assay kit (Human Amyloid beta 1-42 Kit: Cat # A[…], Perkin Elmer). 20 μl of the cell culture supernatant was transferred to an assay plate. […] The assay plate was then read on a Paradigm AlphaLisa Reader using the build-in program with excitation at 680 nm and emission at 570 nm. The measured signals were then used to calculate IC50 values for inhibition of Aβ42 secretion by nonlinear regression fit analysis using XLfit 5.3 software (IDBS).

CNc1nc(N[C@@H]2[C@@H]3CC[C@H]2CN(c2cc(C)ncn2)C3)nc2c1C(C)(C)CN2C1CC(F)(F)C1 [Example 13, 7-(3,3-Difluorocyclobutyl)-N4,5,5-trimethyl-N2-((1R,5S,8s)-3-(6-methylpyrimidin-4-yl)-3-azabicyclo[3.2.1]octan-8-yl)-6,7-dihydro-5H-pyrrolo[2,3-d]pyrimidine-2,4-diamine]
EC50: 36 nM

— US10730881B2, “Fused pyrimidine derivatives” (Hoffmann-La Roche Inc., priority 2016, dated 2020)
